Drawing on patent US20250388593A1 (MITSUBISHI TANABE PHARMA CORPORATION, priority 2023, published 2025), this text covers Kd for 40 molecules.

Structures are written as SMILES. A value given as a limit tells only on which side of the number the result lay.

The target of this assay is CRBN truncate (318-426) (Homo sapiens (Human), UniProt Q96SW2). Kind of assay: Measurement of molecular interactions using surface plasmon resonance (SPR), Biacore T200. In kind it is binding. Particulars: 25° C., immobilized CRBN truncate, upper limit of measurement 200 μM. On the procedure: The instrument used was the Biacore T200 (manufactured by Cytiva). The CRBN truncate (318-426) was obtained by expressing a construct with an Avi-tag added at the C-terminus. The sensor chip used was Sensor Chip SA (manufactured by Cytiva). The CRBN truncate was immobilized using the affinity between SA (streptavidin) on the sensor chip and the Avi-tag. The running buffer was a mixture of 10 mM HEPES pH 7.5, 150 mM NaCl, 1 mM TCEP, 0.005% Tween 20, and 2% DMSO. […] Contact time and dissociation time were set at 60 seconds and 120 seconds, respectively.
CRBN truncate (318-426), sequence (Q96SW2 318-426): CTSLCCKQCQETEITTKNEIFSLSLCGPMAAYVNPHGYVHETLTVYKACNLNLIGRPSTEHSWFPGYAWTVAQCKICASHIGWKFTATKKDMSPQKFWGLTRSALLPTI
On to `O=C1CCCC(C(=O)Nc2ccc(F)cc2)C(=O)N1` (stereo not shown) [Example 28, N-(4-Fluorophenyl)-2,7-dioxoazepane-3-carboxamide], for which the Kd (usually the constant that tells how readily two partners part at equilibrium) is no less than 100 µM. On to `CC(C)(C)OC(=O)N1CCN(C2CCCC(=O)NC2=O)C(=O)C1` (stereo not shown) [Example 29-1, tert-Butyl 4-(2,7-dioxoazepan-3-yl)-3-oxopiperazine-1-carboxylate], for which the Kd is no less than 100 µM. Turning to `CC(C)(C)OC(=O)N1CCN(C2CCCC(=O)NC2=O)C(=O)C1=O` (stereo not shown) [Example 29-2, tert-Butyl 4-(2,7-dioxoazepan-3-yl)-2,3-dioxopiperazine-1-carboxylate], the Kd was no less than 100 µM. For the molecule `CC(C)(C)OC(=O)c1ccc(N2CCN(C3CCCC(=O)NC3=O)C(=O)C2)nc1` (stereo not shown) [Example 30, tert-Butyl 6-[4-(2,7-dioxoazepan-3-yl)-3-oxopiperazin-1-yl]pyridine-3-carboxylate], the Kd was no less than 100 µM.

In turn, `CC1(CN2C(=O)c3ccccc3C2=O)CCCC(=O)NC1=O` (stereo not shown) [Example 31, 2-[(3-Methyl-2,7-dioxoazepan-3-yl)methyl]isoindole-1,3-dione] returned a Kd of 50 to 100 µM. Molecule `CC(C)(C)OC(=O)c1cnc(N2CCC3(CCCC(=O)NC3=O)C2)nc1` (stereo not shown) [Example 32, tert-Butyl 2-(6,8-dioxo-2,7-diazaspiro [4.6]undecan-2-yl) pyrimidine-5-carboxylate] came in with a Kd of no less than 100 µM.

The molecule `COC(=O)c1cccc(CN2CCC3(CCCC(=O)NC3=O)C2)c1` (stereo not shown) [Example 33, Methyl 3-[(6,8-dioxo-2,7-diazaspiro[4.6]undecan-2-yl)methyl]benzoate] came in with a Kd of no less than 100 µM. `COC(=O)c1ccc(CN2CCC3(CCCC(=O)NC3=O)C2)cc1` (stereo not shown) [Example 34, Methyl 4-[(6,8-dioxo-2,7-diazaspiro[4.6]undecan-2-yl)methyl]benzoate]: the Kd is no less than 100 µM.

As for `CC(C)(C)OC(=O)c1cnc(N2CCC3(CCCC(=O)NC3=O)C2)cn1` (stereo not shown) [Example 35, tert-Butyl 5-(6,8-dioxo-2,7-diazaspiro[4.6]undecan-2-yl)pyrazine-2-carboxylate], the dissociation constant Kd was no less than 100 µM.

In turn, `COC(=O)c1cc2c(N3CCC4(CCCC(=O)NC4=O)C3)ncnc2n1C` (stereo not shown) [Example 36, Methyl 4-(6,8-dioxo-2,7-diazaspiro[4.6]undecan-2-yl)-7-methyl-pyrrolo[2,3-d]pyrimidine-6-carboxylate] came in with a Kd of less than 50 µM. With `Cn1ccc2c(N3CCC4(CCCC(=O)NC4=O)C3)ncnc21` (stereo not shown) [Example 37, 2-(7-methylpyrrolo[2,3-d]pyrimidin-4-yl)-2,7-diazaspiro[4.6]undecane-6,8-dione] the figure was no less than 100 µM; with `O=C1CCCC2(CCN(c3ccc(C(F)(F)F)cn3)C2)C(=O)N1` (stereo not shown) [Example 38, 2-[5-(trifluoromethyl)-2-pyridyl]-2,7-diazaspiro[4.6]undecane-6,8-dione], no less than 100 µM.

`Cn1ncc2c(N3CCC4(CCCC(=O)NC4=O)C3)ncnc21` (stereo not shown) [Example 39, 2-(1-methylpyrazolo[3,4-d]pyrimidin-4-yl)-2,7-diazaspiro[4.6]undecane-6,8-dione] gave a Kd of no less than 100 µM.

Molecule `CCOC(=O)c1cc(N2CCC3(CCCC(=O)NC3=O)C2)ncc1C(F)(F)F` (stereo not shown) [Example 40, Ethyl 2-(6,8-dioxo-2,7-diazaspiro[4.6]undecan-2-yl)-5-(trifluoromethyl)pyridine-4-carboxylate] gave a Kd of no less than 100 µM. `COc1cc(N2CCC3(CCCC(=O)NC3=O)C2)ccc1[N+](=O)[O-]` (stereo not shown) [Example 41, 2-(3-Methoxy-4-nitrophenyl)-2,7-diazaspiro[4.6]undecane-6,8-dione] gave a Kd of no less than 100 µM.

With `COc1cc([N+](=O)[O-])ccc1N1CCC2(CCCC(=O)NC2=O)C1` (stereo not shown) [Example 42, 2-(2-Methoxy-4-nitrophenyl)-2,7-diazaspiro[4.6]undecane-6,8-dione], the equilibrium dissociation constant (Kd) is 50 to 100 µM. With `COC(=O)c1cc2ncnc(N3CCC4(CCCC(=O)NC4=O)C3)c2s1` (stereo not shown) [Example 43, Methyl 4-(6,8-dioxo-2,7-diazaspiro[4.6]undecan-2-yl)thieno[3,2-d]pyrimidine-6-carboxylate] the figure was 50 to 100 µM. The result for `O=C1CCC(N2C(=O)CC3(CN(C(=O)c4ccccc4)C3)C2=O)C(=O)N1` (stereo not shown) [Example 44-2, 2-Benzoyl-6-(2,6-dioxopiperidin-3-yl)-2,6-diazaspiro [3.4]octane-5,7-dione] reads no less than 100 µM; that for `CC(C)(C)OC(=O)c1ccc(N2CC3(CC(=O)N(C4CCC(=O)NC4=O)C3=O)C2)nc1` (stereo not shown) [Example 45, tert-Butyl 6-[6-(2,6-dioxopiperidin-3-yl)-5,7-dioxo-2,6-diazaspiro [3.4]octan-2-yl]pyridine-3-carboxylate], 50 to 100 µM. `CC(C)(C)OC(=O)c1ccnc(N2CC3(CC(=O)N(C4CCC(=O)NC4=O)C3=O)C2)c1` (stereo not shown) [Example 46, tert-Butyl 2-[6-(2,6-dioxopiperidin-3-yl)-5,7-dioxo-2,6-diazaspiro[3.4]octan-2-yl]pyridine-4-carboxylate] gave a Kd of 50 to 100 µM.

`CC(C)(C)OC(=O)c1cccc(N2CC3(CC(=O)N(C4CCC(=O)NC4=O)C3=O)C2)n1` (stereo not shown) [Example 47, tert-Butyl 6-[6-(2,6-dioxopiperidin-3-yl)-5,7-dioxo-2,6-diazaspiro[3.4]octan-2-yl]pyridine-2-carboxylate] showed a Kd of 50 to 100 µM. `CC(C)(C)OC(=O)CN1CC2(CC(=O)N(C3CCC(=O)NC3=O)C2=O)C1` (stereo not shown) [Example 48, tert-Butyl 2-[6-(2,6-dioxopiperidin-3-yl)-5,7-dioxo-2,6-diazaspiro[3.4]octan-2-yl]acetate] registered a Kd of no less than 100 µM. Molecule `CC(C)(C)OC(=O)C(C)(C)N1CC2(CC(=O)N(C3CCC(=O)NC3=O)C2=O)C1` (stereo not shown) [Example 49, tert-Butyl 2-[6-(2,6-dioxopiperidin-3-yl)-5,7-dioxo-2,6-diazaspiro[3.4]octan-2-yl]-2-methylpropanoate] returned a Kd of no less than 100 µM. In turn, `CC(C)(C)OC(=O)NCCCCCN1CC2(CC(=O)N(C3CCC(=O)NC3=O)C2=O)C1` (stereo not shown) [Example 50, tert-Butyl N-[5-[6-(2,6-dioxopiperidin-3-yl)-5,7-dioxo-2,6-diazaspiro[3.4]octan-2-yl]pentyl]carbamate] gave a Kd of no less than 100 µM. As to `CC(C)(C)OC(=O)NCCCCCCCCN1CC2(CC(=O)N(C3CCC(=O)NC3=O)C2=O)C1` (stereo not shown) [Example 51, tert-Butyl N-[8-[6-(2,6-dioxopiperidin-3-yl)-5,7-dioxo-2,6-diazaspiro[3.4]octan-2-yl]octyl]carbamate], the Kd was no less than 100 µM. With `CCOC(=O)c1ccc2nc(N3CC4(CC(=O)N(C5CCC(=O)NC5=O)C4=O)C3)sc2c1` (stereo not shown) [Example 52, Ethyl 2-[6-(2,6-dioxopiperidin-3-yl)-5,7-dioxo-2,6-diazaspiro[3.4]octan-2-yl]-1,3-benzothiazole-6-carboxylate] the figure was less than 50 µM. The molecule `COC(=O)c1cccc(CN2CC3(CC(=O)N(C4CCC(=O)NC4=O)C3=O)C2)c1` (stereo not shown) [Example 53, Methyl 3-[[6-(2,6-dioxopiperidin-3-yl)-5,7-dioxo-2,6-diazaspiro[3.4]octan-2-yl]methyl]benzoate] registered a Kd of 50 to 100 µM. For `COC(=O)c1ccc(CN2CC3(CC(=O)N(C4CCC(=O)NC4=O)C3=O)C2)cc1` (stereo not shown) [Example 54, Methyl 4-[[6-(2,6-dioxopiperidin-3-yl)-5,7-dioxo-2,6-diazaspiro[3.4]octan-2-yl]methyl]benzoate], the Kd fell in the range of 50 to 100 µM. `O=C1CCC(N2C(=O)CC3(CN(C(=O)CNC(=O)c4ccccc4)C3)C2=O)C(=O)N1` (stereo not shown) [Example 55, N-[2-[6-(2,6-Dioxopiperidin-3-yl)-5,7-dioxo-2,6-diazaspiro[3.4]octan-2-yl]-2-oxoethyl]benzamide]: the Kd was no less than 100 µM. `CC(C)(C)OC(=O)c1ccc(N2CCCC3(CCCC(=O)NC3=O)CCC2)nc1` [Example 56, tert-Butyl 6-(1,3-dioxo-2,11-diazaspiro [6.7]tetradecan-11-yl) pyridine-3-carboxylate] showed a Kd of 50 to 100 µM. The result for `O=C1CCCC(CNC(=O)c2ccccc2)C(=O)N1` (stereo not shown) [Example 57, N-[(2,7-Dioxoazepan-3-yl)methyl]benzamide] reads no less than 100 µM; that for `CCOC(=O)c1ccc2nc(N3CC4(CC(=O)N(C5CCC(=O)NC5=O)C4)C3)sc2c1` (stereo not shown) [Example 59, Ethyl 2-[6-(2,6-dioxo-3-piperidyl)-7-oxo-2,6-diazaspiro [3.4]octan-2-yl]-1,3-benzothiazole-6-carboxylate], less than 50 µM. For the molecule `CC(C)(C)OC(=O)c1cccc(C2CCCC(=O)NC2=O)c1` (stereo not shown) [Example 60, tert-Butyl 3-(2,7-dioxoazepan-3-yl) benzoate], the Kd was in the range of 50 to 100 µM.

For the molecule `O=C1CCCC(c2ccc([N+](=O)[O-])cc2)C(=O)N1` (stereo not shown) [Example 61, 3-(4-Nitrophenyl) azepane-2,7-dione], the Kd was no less than 100 µM. For the molecule `O=C1CCCC(c2cccc([N+](=O)[O-])c2)C(=O)N1` (stereo not shown) [Example 62, 3-(3-Nitrophenyl) azepane-2,7-dione], the Kd is no less than 100 µM. `CC(=O)Nc1ccc(Cl)c(C2CCCC(=O)NC2=O)c1` (stereo not shown) [Example 65, N-[4-Chloro-3-(2,7-dioxoazepan-3-yl)phenyl]acetamide] registered a dissociation constant (Kd) of no less than 100 µM. Turning to `O=C1CCCC(Oc2ccccc2[N+](=O)[O-])C(=O)N1` (stereo not shown) [Example 66-1, 3-(2-Nitrophenoxy) azepane-2,7-dione], the Kd was no less than 100 µM.

Regarding `Nc1ccccc1OC1CCCC(=O)NC1=O` (stereo not shown) [Example 66-2, 3-(2-Aminophenoxy) azepane-2,7-dione], the Kd was no less than 100 µM. Regarding `CC(C)(C)OC(=O)COc1cccc(C(=O)NC2CCCC(=O)NC2=O)c1F` (stereo not shown) [Example 67, tert-Butyl 2-[3-[(2,7-dioxoazepan-3-yl)carbamoyl]-2-fluorophenoxy]acetate], the Kd was no less than 100 µM.

`COc1c(OCC(=O)OC(C)(C)C)cccc1C(=O)NC1CCCC(=O)NC1=O` (stereo not shown) [Example 68, tert-Butyl 2-[3-[(2,7-dioxoazepan-3-yl)carbamoyl]-2-methoxyphenoxy]acetate] yielded a dissociation constant Kd of no less than 100 µM.
